According to patent publication US6972296B2, “Carboxylic acid derivatives that inhibit the binding of integrins to their receptors” (Encysive Pharmaceuticals Inc., priority 1999, dated 2005):
One block for each compound: values may come before it.

Molecular target: T1, α4β1 integrin (Homo sapiens, UniProt P05556+P13612)
T1 construct: endogenous in cells; host or cells: Ramos cells
Experiment: Adhesion of calcein-labeled Ramos cells to CS1 (fibronectin) peptide conjugated ovalbumin
Type: cell-based
Details: Ramos cell adhesion to CS1 conjugated ovalbumin
In short: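 Calcein AM-labelled Ramos cells (2.5×10^5/well) with compound, up to 100 μM, added to plates coated with CS1 peptide–ovalbumin (0.5 μg/ml) and blocked with 3% BSA. Binding buffer TBS pH 7.5 with 1 mM each MgCl2, CaCl2, MnCl2; 30 min, 37 °C. After washes, adherent cells lysed and read fluorometrically; […].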

[1] = Table 5, dose required to give 50% inhibition
[2] = Table 7, dose required to give 50% inhibition

T1 sequence (P13612 34-1032): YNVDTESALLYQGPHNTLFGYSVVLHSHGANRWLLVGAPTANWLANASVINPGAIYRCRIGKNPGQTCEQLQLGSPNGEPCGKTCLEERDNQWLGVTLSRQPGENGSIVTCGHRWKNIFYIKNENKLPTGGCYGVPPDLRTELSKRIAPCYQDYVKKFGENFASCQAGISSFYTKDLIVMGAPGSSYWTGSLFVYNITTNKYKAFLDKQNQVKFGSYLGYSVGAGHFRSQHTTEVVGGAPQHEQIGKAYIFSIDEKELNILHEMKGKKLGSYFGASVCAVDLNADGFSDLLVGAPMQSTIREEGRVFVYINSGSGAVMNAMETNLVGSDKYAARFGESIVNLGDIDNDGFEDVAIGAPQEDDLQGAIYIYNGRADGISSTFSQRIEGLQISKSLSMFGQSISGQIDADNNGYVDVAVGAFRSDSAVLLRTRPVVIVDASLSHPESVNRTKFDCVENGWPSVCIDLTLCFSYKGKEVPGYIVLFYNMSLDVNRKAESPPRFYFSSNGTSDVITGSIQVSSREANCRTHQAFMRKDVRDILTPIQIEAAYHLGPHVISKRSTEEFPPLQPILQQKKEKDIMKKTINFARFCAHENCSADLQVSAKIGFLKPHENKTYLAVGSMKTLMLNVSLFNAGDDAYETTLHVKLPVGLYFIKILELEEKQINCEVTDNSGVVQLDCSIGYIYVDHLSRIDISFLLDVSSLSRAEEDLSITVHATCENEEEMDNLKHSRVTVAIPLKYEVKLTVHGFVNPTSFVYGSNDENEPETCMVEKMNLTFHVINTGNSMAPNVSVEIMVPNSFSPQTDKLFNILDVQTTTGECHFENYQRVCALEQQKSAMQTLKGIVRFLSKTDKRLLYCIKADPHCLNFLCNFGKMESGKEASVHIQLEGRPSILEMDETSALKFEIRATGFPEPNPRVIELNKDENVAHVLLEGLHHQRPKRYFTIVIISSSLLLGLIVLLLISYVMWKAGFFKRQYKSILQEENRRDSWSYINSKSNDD
T1 sequence (P05556 21-798): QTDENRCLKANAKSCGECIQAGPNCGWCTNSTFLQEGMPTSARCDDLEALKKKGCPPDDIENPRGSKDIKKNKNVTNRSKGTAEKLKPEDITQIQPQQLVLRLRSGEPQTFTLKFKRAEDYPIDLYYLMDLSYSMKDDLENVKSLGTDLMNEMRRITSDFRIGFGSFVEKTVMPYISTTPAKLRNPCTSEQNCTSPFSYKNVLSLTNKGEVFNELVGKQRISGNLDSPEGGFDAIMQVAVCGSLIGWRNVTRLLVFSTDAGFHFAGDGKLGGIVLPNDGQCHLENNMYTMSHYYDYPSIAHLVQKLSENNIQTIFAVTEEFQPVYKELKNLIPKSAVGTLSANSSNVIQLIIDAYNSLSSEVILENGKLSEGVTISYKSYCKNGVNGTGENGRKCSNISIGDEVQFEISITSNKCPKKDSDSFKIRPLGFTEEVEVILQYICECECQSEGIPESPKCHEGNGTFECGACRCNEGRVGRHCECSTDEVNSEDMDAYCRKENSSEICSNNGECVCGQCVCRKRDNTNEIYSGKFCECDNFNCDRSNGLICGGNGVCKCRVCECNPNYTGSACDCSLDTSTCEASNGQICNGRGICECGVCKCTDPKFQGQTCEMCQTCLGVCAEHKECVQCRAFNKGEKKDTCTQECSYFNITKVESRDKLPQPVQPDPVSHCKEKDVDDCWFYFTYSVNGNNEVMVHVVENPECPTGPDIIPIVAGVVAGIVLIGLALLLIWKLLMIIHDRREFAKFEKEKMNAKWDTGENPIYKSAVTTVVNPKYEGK

SMILES: CCOc1cccc(Cl)c1Cn1cc(C)c(O)c(NC(=O)N[C@@H](CC(=O)O)c2cccc(OC(C)C)c2)c1=O [(3S)-3-[({[1-(2-chloro-6-ethoxybenzyl)-4-hydroxy-5-methyl-2-oxo-1,2-dihydropyridin-3-yl]amino}carbonyl)amino]-3-(3-isopropoxyphenyl)propanoic acid]
IC50 (Table 6, 30 minutes at 37° C.): 4 nM

SMILES: Cc1ccc([C@H](CC(=O)O)NC(=O)Nc2c(N3CCN(C)CC3)ccn(Cc3ccccc3Cl)c2=O)cc1
IC50 (Table 3, 30 minutes at 37° C.): 3 nM

SMILES: C[C@H](CC(=O)O)NC(=O)Nc1c(O)ccn(Cc2ccccc2Cl)c1=O
IC50 [1]: 190 nM

SMILES: O=C(O)C[C@H](NC(=O)Nc1cccn(Cc2cc(Cl)cc(Cl)c2)c1=O)c1ccc2c(c1)OCO2
IC50 (Table 4, 30 minutes at 37° C.): 5000 nM

SMILES: COc1cc(C)c([C@H](CC(=O)O)NC(=O)Nc2c(O)ccn(Cc3ccccc3Cl)c2=O)cc1C
IC50 [1]: 80 nM

SMILES: Cc1ccccc1NC(=O)Nc1ccc(Cn2cccc(NC(=O)N[C@@H](CC(=O)O)c3ccc4c(c3)OCO4)c2=O)cc1
IC50 (Table 2, 30 minutes at 37° C.): 1 nM

SMILES: CCOc1cccc(Cl)c1Cn1cc(C2CC2)c(O)c(NC(=O)N[C@@H](CC(=O)O)c2ccc(C)cc2)c1=O [(3S)-3-[({[1-(2-chloro-6-ethoxybenzyl)-5-cyclopropyl-4-hydroxy-2-oxo-1,2-dihydropyridin-3-yl]amino}carbonyl)amino]-3-(4-methylphenyl)propanoic acid]
IC50 [2]: 3 nM

SMILES: Cc1ccc([C@H](CC(=O)O)NC(=O)Nc2c(O)ccn(Cc3ccc(F)cc3F)c2=O)cc1
IC50 [1]: 30 nM

SMILES: O=C(O)C[C@H](NC(=O)Nc1c(O)ccn(Cc2ccccc2Cl)c1=O)c1ccc(F)cc1
IC50 (Table 3, 30 minutes at 37° C.): 30 nM

SMILES: Cc1ccc([C@H](CC(=O)O)NC(=O)Nc2c(C)ccn(Cc3ccccc3Cl)c2=O)cc1 [(3S)-3-{[({1-[(2-chlorophenyl)methyl]-4-methyl-2-oxo-1,2-dihydro-3-pyridinyl}amino)carbonyl]amino}-3-(4-methylphenyl)propanoic acid]
IC50 (Table 3, 30 minutes at 37° C.): 5 nM

SMILES: COc1cccc([C@H](CC(=O)O)NC(=O)Nc2c(O)c(C)cn(Cc3ccccc3Cl)c2=O)c1
IC50 (Table 6, 30 minutes at 37° C.): 3 nM

SMILES: Cc1ccc([C@H](CC(=O)O)NC(=O)Nc2cccn(Cc3ccccc3C#N)c2=O)cc1
IC50 (Table 4, 30 minutes at 37° C.): 100 nM

More lines, now with the values ahead:

IC50 [1]: 3 nM
SMILES: Cc1ccc([C@H](CC(=O)O)NC(=O)Nc2c(O)ccn(Cc3cc(S(C)(=O)=O)ccc3Cl)c2=O)cc1 [(3S)-3-{[({1-[2-chloro-5-(methylsulfonyl)benzyl]-4-hydroxy-2-oxo-1,2-dihydropyridin-3-yl}amino)carbonyl]amino}-3-(4-methylphenyl)propanoic acid]

IC50 [2]: 22 nM
SMILES: O=C(O)C[C@H](NC(=O)Nc1c(O)c2c(n(Cc3ccccc3Cl)c1=O)CCC2)c1cnc2ccccc2c1

IC50 [2]: 3 nM
SMILES: CCCOc1cccc([C@H](CC(=O)O)NC(=O)Nc2c(O)c3c(n(Cc4c(Cl)cccc4OCC)c2=O)CCC3)c1 [(3S)-3-[({[1-(2-chloro-6-ethoxybenzyl)-4-hydroxy-2-oxo-2,5,6,7-tetrahydro-1H-cyclopenta[b]pyridin-3-yl]amino}carbonyl)amino]-3-(3-propoxyphenyl)propanoic acid]

IC50 (Table 4, 30 minutes at 37° C.): 50000 nM
SMILES: O=C(Nc1cccn(Cc2ccccc2Cl)c1=O)N[C@H](Cc1ccccc1)C(=O)O

IC50 [1]: 6 nM
SMILES: Cc1ccc([C@H](CC(=O)O)NC(=O)Nc2c(O)c(C)c(C)n(Cc3ccccc3Cl)c2=O)cc1 [(3S)-3-[({[1-(2-chlorobenzyl)-4-hydroxy-5,6-dimethyl-2-oxo-1,2-dihydropyridin-3-yl]amino}carbonyl)amino]-3-(4-methylphenyl)propanoic acid]

IC50 [2]: 22 nM
SMILES: Cc1ccc([C@H](CC(=O)O)NC(=O)Nc2c(O)c(C)cn(Cc3c(Cl)cccc3OCC(C)C)c2=O)cc1

IC50 (Table 6, 30 minutes at 37° C.): 15 nM
SMILES: Cc1ccc([C@H](CC(=O)O)NC(=O)Nc2c(O)c(C)cn(Cc3ccccc3Cl)c2=O)cc1C

IC50 [2]: 16 nM
SMILES: O=C(O)C[C@H](NC(=O)Nc1c(O)c2c(n(Cc3ccccc3Cl)c1=O)CCC2)c1cccc(F)c1
